Laboratory results as given in US12350270B2, “Antimalarial agents” (Merck Sharp & Dohme LLC, priority 2019, dated 2025).

The compounds below were run on parasites (ring stage, in human red blood cell culture) (assay: Parasite LDH growth assay (antiparasite potency, Parasite Assay)). Conditions: 0.7% rings, 2% haematocrit, 72 hours at 37° C., LDH readout of parasite growth.
Type: cell-based, Plasmodium falciparum
How it was run: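 Growth was read by an LDH assay after a freeze–thaw cycle (−80 °C overnight, 4 h thaw at RT). Before that, parasites grew with compound for 72 h at 37 °C under gassed, humidified conditions. The input was a ring-stage culture adjusted to 0.7% parasitemia and 2% haematocrit in serum (5%)/albumax (0.5%)-supplemented RPMI-Hepes.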

In order of rising EC50:
1. CCC1(CC)CC(=O)N([C@@H]2CCOc3ccc(C(=O)N[C@H]4c5ccccc5OCC4(C)O)cc32)C(=N)N1 (single isomer, unassigned) [Example 60B]  1.7 nM
2. CC[C@]1(C)CC(=O)N([C@@H]2CCOc3ccc(C(=O)NC4c5cc(F)ccc5OCC4(C)O)cc32)C(=N)N1 (single isomer, unassigned) [Example 190B]  2.6 nM
3. CCC1(CC)CC(=O)N([C@H]2c3cc(C(=O)N[C@@H]4c5ccccc5C[C@H]4O)ccc3OC[C@@H]2OC)C(=N)N1 [Example 69A, (3R,4S)-4-(4,4-diethyl-2-imino-6-oxotetrahydropyrimidin-1(2H)-yl)-N-((1R,2R)-2-hydroxy-2,3-dihydro-1H-inden-1-yl)-3-methoxychromane-6-carboxamide]  2.6 nM
4. CCC1(CC)CC(=O)N([C@@H]2CCOc3ccc(C(=O)NC4c5ccc(OC)cc5OCC4(C)O)cc32)C(=N)N1 (single isomer, unassigned) [Example 258D]  6.7 nM
5. CC(C)[C@]1(C)CC(=O)N([C@@H]2CC(C)(C)Oc3ccc(C(=O)N[C@@H]4c5ccccc5CC4(C)O)cc32)C(=N)N1 (single isomer, unassigned) [Example 43B]  21 nM
6. CC1(C)CC(=O)N([C@@H]2CCOc3ccc(C(=O)NC4c5ccccc5OCC4(O)C(F)(F)F)cc32)C(=N)N1 (single isomer, unassigned) [Example 234A]  22.5 nM
7. CCC1(CC)CC(=O)N([C@@H]2CCOc3ccc(C(=O)NC4c5cc(F)ccc5OCC4(C)O)cc32)C(=N)N1 (single isomer, unassigned) [Example 226B]  69 nM
8. CCC1(CC)CC(=O)N(C2c3cc(C(=O)N[C@@H]4c5ccccc5C[C@H]4O)ccc3OC2(C)CO)C(=N)N1 (single isomer, unassigned) [Example 178A]  108 nM

Same assay, conditions: Plasmodium falciparum, Erythrocyte, 72 h, 0.7% rings, 2% haematocrit, 72 hours at 37° C., LDH readout of parasite growth

In order of rising EC50:
1. CCC1(CC)CC(=O)N([C@@H]2CCOc3ccc(C(=O)N[C@H]4CC(C)(C)Oc5ccc(C#N)cc54)cc32)C(=N)N1 [Example 21A, (R)-N-((S)-6-cyano-2,2-dimethylchroman-4-yl)-4-(4,4-diethyl-2-imino-6-oxotetrahydropyrimidin-1(2H)-yl)chromane-6-carboxamide]  0.8 nM
2. CCC1(CC)CC(=O)N([C@@H]2CCOc3ccc(C(=O)NC4c5ccccc5C(F)(F)C4(C)C)cc32)C(=N)N1 (stereo partly drawn) [Example 227, (4R)-4-(4,4-diethyl-2-imino-6-oxo-hexahydropyrimidin-1-yl)-N-(3,3-difluoro-2,2-dimethyl-indan-1-yl)chromane-6-carboxamide]  1.3 nM
3. CCC1(CC)CC(=O)N([C@@H]2C[C@H](OC)c3ccc(C(=O)N[C@@H]4c5ccccc5OC[C@@]4(C)O)cc32)C(=N)N1 [Example 205, (1S,3R)-3-(4,4-diethyl-2-imino-6-oxo-hexahydropyrimidin-1-yl)-N-[(3S,4R)-3-hydroxy-3-methyl-chroman-4-yl]-1-methoxy-indane-5-carboxamide]  2.1 nM
4. CCC1(CC)CC(=O)N([C@@H]2CC(C)(C)Oc3ccc(C(=O)N[C@@H]4c5ccccc5C[C@H]4O)cc32)C(=N)N1 [Example 35A, (R)-4-(4,4-diethyl-2-imino-6-oxotetrahydropyrimidin-1(2H)-yl)-N-((lR,2R)-2-hydroxy-2,3-dihydro-1H-inden-1-yl)-2,2-dimethylchromane-6-carboxamide]  2.4 nM
5. CC1(C)CC(=O)N([C@@H]2CCS(=O)(=O)c3ccc(C(=O)N[C@H]4CC(C)(C)Oc5ccccc54)cc32)C(=N)N1 [Example 220, (4R)-N-[(4S)-2,2-dimethylchroman-4-yl]-4-(2-imino-4,4-dimethyl-6-oxo-hexahydropyrimidin-1-yl)-1,1-dioxo-3,4-dihydro-2H-thiochromene-6-carboxamide]  2.9 nM
6. CCC1(CC)CC(=O)N([C@@H]2CCOc3ccc(C(=O)NC(c4ccccc4)C4CCCCC4)cc32)C(=N)N1 (stereo partly drawn) [Example 200, (4R)-N-[cyclohexyl(phenyl)methyl]-4-(4,4-diethyl-2-imino-6-oxo-hexahydropyrimidin-1-yl)chromane-6-carboxamide]  2.9 nM
7. CCC1(CC)CC(=O)N([C@H]2c3cc(C(=O)N[C@@H]4c5ccccc5OC(C)(C)[C@H]4O)ccc3OC2(COC)COC)C(=N)N1 [Example 307]  3.2 nM
8. CCC1(CC)CC(=O)N(C2c3cc(C(=O)N[C@@H]4c5ccccc5C[C@H]4O)ccc3OCC2(C)OC)C(=N)N1 (stereo partly drawn) [Example 208, 4-(4,4-diethyl-2-imino-6-oxo-hexahydropyrimidin-1-yl)-N-[(1R,2R)-2-hydroxyindan-1-yl]-3-methoxy-3-methyl-chromane-6-carboxamide]  3.7 nM
9. CCC1(CC)CC(=O)N([C@H]2c3cc(C(=O)N[C@@H]4c5ccccc5C[C@H]4O)ccc3OC[C@H]2COC)C(=N)N1 [Example 215, (3R,4R)-4-(4,4-diethyl-2-imino-6-oxo-hexahydropyrimidin-1-yl)-N-[(1R,2R)-2-hydroxyindan-1-yl]-3-(methoxymethyl)chromane-6-carboxamide]  4.2 nM
10. CCC1(CC)CC(=O)N([C@@H]2CC3(COC3)Oc3ccc(C(=O)N[C@@H]4c5ccccc5C[C@H]4O)cc32)C(=N)N1 [Example 23A, (R)-4-(4,4-diethyl-2-imino-6-oxotetrahydropyrimidin-1(2H)-yl)-N-((1R,2R)-2-hydroxy-2,3-dihydro-1H-inden-1-yl)spiro[chromane-2,3′-oxetane]-6-carboxamide]  5 nM
11. CC1(C)CC(=O)N([C@H]2c3cc(C(=O)N[C@@H]4c5ccccc5OC(C)(C)[C@H]4O)ccc3OC2(C)C)C(=N)N1 [Example 182, (3S)-N-[(3S,4R)-3-hydroxy-2,2-dimethyl-chroman-4-yl]-3-(2-imino-4,4-dimethyl-6-oxo-hexahydropyrimidin-1-yl)-2,2-dimethyl-3H-benzofuran-5-carboxamide]  6.1 nM
12. CCC1(CC)CC(=O)N(C2Cc3ccc(C(=O)N[C@@H]4c5ccccc5OC[C@@]4(C)O)cc32)C(=N)N1 (stereo partly drawn) [Example 105, 8-(4,4-diethyl-2-imino-6-oxo-hexahydropyrimidin-1-yl)-N-[(3S,4R)-3-hydroxy-3-methyl-chroman-4-yl]bicyclo[4.2.0]octa-1(6),2,4-triene-3-carboxamide]  8.8 nM
13. CCC1(CC)CC(=O)N([C@@H]2CCOc3ccc(C(=O)N[C@@H]4C[C@@H](C(F)(F)F)Oc5ccccc54)cc32)C(=N)N1 [Example 6B, (R)-4-(4,4-diethyl-2-imino-6-oxotetrahydropyrimidin-1(2H)-yl)-N-((2S,4R)-2-(trifluoromethyl)chroman-4-yl)chromane-6-carboxamide]  8.8 nM
14. CCC1(CC)CC(=O)N([C@@H]2CCS(=O)(=O)c3ccc(C(=O)N[C@@H]4c5ccccc5C[C@H]4O)cc32)C(=N)N1 [Example 222, (4R)-4-(4,4-diethyl-2-imino-6-oxo-hexahydropyrimidin-1-yl)-N-[(1R,2R)-2-hydroxyindan-1-yl]-1,1-dioxo-3,4-dihydro-2H-thiochromene-6-carboxamide]  15.6 nM
15. C[C@@H]1C[C@@H](N2C(=N)NC(C)(C)CC2=O)c2cc(C(=O)N[C@@H]3c4ccccc4C[C@@]3(C)O)ccc21 [Example 89, (1R,3R)-N-[(1R,2R)-2-hydroxy-2-methyl-indan-1-yl]-3-(2-imino-4,4-dimethyl-6-oxo-hexahydropyrimidin-1-yl)-1-methyl-indane-5-carboxamide]  43.5 nM
16. COC1COc2ccc(C(=O)N[C@@H]3c4ccccc4OC[C@]3(C)O)cc2C1N1C(=N)NC(C)(C)CC1=O (stereo partly drawn) [Example 185, N-[(3R,4R)-3-hydroxy-3-methyl-chroman-4-yl]-4-(2-imino-4,4-dimethyl-6-oxo-hexahydropyrimidin-1-yl)-3-methoxy-chromane-6-carboxamide]  50.3 nM
17. CCC1(CC)CC(=O)N([C@@H]2C[C@@H](COCCOCCOCCNC(C)=O)Oc3ccc(C(=O)N[C@H]4CC(C)(C)Oc5ccccc54)cc32)C(=N)N1 [Example 312, (2S,4R)-2-[2-[2-(2-acetamidoethoxy)ethoxy]ethoxymethyl] -4-(4,4-diethyl-2-imino-6-oxo-hexahydropyrimidin-1-yl)-N-[(4S)-2,2-dimethylchroman-4-yl]chromane-6-carboxamide]  53.9 nM
18. CCC1(CC)CC(=O)N(C2CC(C(=O)N(C)C)Oc3ccc(C(=O)N[C@@H]4c5ccccc5C[C@H]4O)cc32)C(=N)N1 (stereo partly drawn) [Example 274, 4-(4,4-diethyl-2-imino-6-oxo-hexahydropyrimidin-1-yl)-N6-[(1R,2R)-2-hydroxyindan-1-yl]-N2,N2-dimethyl-chromane-26,-dicarboxamide]  98.5 nM
19. COCC1(C)Oc2ccc(C(=O)N[C@@H]3c4ccccc4OC[C@@]3(C)O)cc2C1N1C(=N)NC(C)(C)CC1=O (stereo partly drawn) [Example 219, N-[(3S,4R)-3-hydroxy-3-methyl-chroman-4-yl]-3-(2-imino-4,4-dimethyl-6-oxo-hexahydropyrimidin-1-yl)-2-(methoxymethyl)-2-methyl-3H-benzofuran-5-carboxamide]  208 nM
20. CCC1(CC)CC(=O)N([C@H]2c3cc(C(=O)N[C@H]4c5ccccc5CC[C@@H]4O)ccc3O[C@@]2(C)COC)C(=N)N1 [Example 250, (2R,3S)-3-(4,4-diethyl-2-imino-6-oxo-hexahydropyrimidin-1-yl)-N-[(1S,2S)-2-hydroxytetralin-1-yl]-2-(methoxymethyl)-2-methyl-3H-benzofuran-5-carboxamide]  219 nM
21. C[C@H]1Cc2ccc(C(=O)N[C@@H]3c4ccccc4OC(C)(C)[C@H]3O)cc2[C@H]1N1C(=N)NC(C)(C)CC1=O [Example 137, (2S,3S)-N-[(3S,4R)-3-hydroxy-2,2-dimethyl-chroman-4-yl]-3-(2-imino-4,4-dimethyl-6-oxo-hexahydropyrimidin-1-yl)-2-methyl-indane-5-carboxamide]  239 nM
22. CC1(C)CC(=O)N(C2CCS(=O)(=O)c3ccc(C(=O)N[C@@H]4c5ccccc5OC[C@@]4(C)O)cc32)C(=N)N1 (stereo partly drawn) [Example 228, N-[(3S,4R)-3-hydroxy-3-methyl-chroman-4-yl]-4-(2-imino-4,4-dimethyl-6-oxo-hexahydropyrimidin-1-yl)-1,1-dioxo-3,4-dihydro-2H-thiochromene-6-carboxamide]  282 nM
